Calls of active or inactive are those of the source.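 The calls were made as follows: active = IC50 of 10 µM or lower; inactive = IC50 above 10 µM.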
Tested on: T. brucei BSF 427 growth, AlamarBlue, 48 h
Assay: growth inhibition of T. brucei bloodstream parasites, dose response, counter-screen for T. brucei MetRS inhibitor project, absorbance, assay provider, round 3 (AID 1053204)

SMILES | IC50
Nc1c(Cl)ncnc1Nc1ccc(C(=O)O)cc1 | > 10000 nM (inactive)
CCN(CC)C(=O)C(=O)c1cn(CC(=O)Nc2cc(Oc3ccc(F)cc3)cc(C(F)(F)F)c2)c2ccccc12 | 1420 nM
O=C(Cn1cc(C(=O)C(=O)NCc2ccccc2)c2ccccc21)Nc1cc(Oc2ccccc2)cc(C(F)(F)F)c1 | 916 nM
CCN(CC)C(=O)C(=O)c1cn(CCNc2cccc(C(F)(F)F)c2)c2ccccc12 | 5500 nM
CCN(CC)C(=O)C(=O)c1cn(CCNc2cc(Oc3ccccc3)cc(C(F)(F)F)c2)c2ccccc12 | 4080 nM
O=C(Cc1ccc(Nc2nc3ccc(Br)cc3[nH]2)cc1)NCCc1cccs1 | 8910 nM
CCN(CC)C(=O)Cc1cn(CC(=O)Nc2cccc(C(F)(F)F)c2)c2ccccc12 | > 10000 nM (inactive)
CCN(CC)C(=O)C(=O)c1cn(CC(=O)Nc2cc(Oc3ccccc3OC)cc(C(F)(F)F)c2)c2ccccc12 | 952 nM
CCN(CC)C(=O)C(=O)c1cn(CC(=O)Nc2cc(Oc3ccccc3F)cc(C(F)(F)F)c2)c2ccccc12 | 1630 nM
CCN(CC)C(=O)C(=O)c1cn(CC(=O)Nc2cc(Oc3ccc(OC)cc3)cc(C(F)(F)F)c2)c2ccccc12 | 830 nM
